Measurements reported in article PMC11944514, “Dengue Virus Inhibitors as Potential Broad-Spectrum Flavivirus Inhibitors” (Pharmaceuticals, 2025).
“Also recorded” adds a separate entry of the source.

Legend:
TBEV-Nanoluc = assay: microbe, parasite or virus in culture; type: cell-based; details: for EC50: Tick-borne encephalitis virus, Vero C1008, read-out: TBEV EC50, μM
Vero E6 cells [1] = assay: WST-1 cell viability assay, Vero E6; type: cell-based, African green monkey; details: Vero E6, 48 h of exposure
Experimental: (§1) The cytotoxic effect of all studied compounds was assessed using the WST-1 assay after 48 h of exposure. […] This observation can be explained by the fact that the compound C8 is resazurin, phenoxazine dye, also known as Alamar Blue, which is subject to irreversible metabolic reduction to the resorufin by live mammalian cells. Thus, the cytotoxic effect of this compound cannot be assessed by the WST-1 assay correctly. Therefore, the C8 cytotoxicity was further assessed using the resazurin cell viability assay. This assay allowed us to avoid the interference between the tested compound and dye and obtain more reliable results for colored compounds.
(§2) Vero E6 or U2OS cells were seeded on the 96-well plate at a density of 1 × 10^4 cells/well and were allowed to adhere overnight. Next day, the cells were treated with the studied compounds at concentrations ranging from 1 to 100 μM with a ten-fold dilution step. As a solvent control, 0.01% DMSO (Sigma, St. Louis, MO, USA) was used. After 48 h of exposure, 10 μL of WST-1 (10 mg/mL) cell proliferation reagent (Roche, Cat. No. 11644807001) was added to each well, and plates were incubated at 37 °C, 5% CO2 for 2 h. The optical density was then measured at 450 nm using an Epoch Microplate Spectrophotometer (BioTek Instruments, Inc., Winooski, VT, USA). Four independent experiments were carried out in triplicates.

[2] = xCELLigence real-time cytotoxicity assay (RTCA), CC50; type: cell-based; details: African green monkey, Vero E6 cells, 24 h of exposure
Experimental: As compounds C1, C2, and C3 were relatively toxic (Figure 2A), we determined the selectivity index (SI) of the identified potential broad-spectrum flavivirus inhibitors. As the WST-1 assay tends to underestimate the toxic effect and is unable to detect cytostatic effects, the CC50 of the perspective compounds was measured using a more sensitive xCELLigence real-time cytotoxicity assay (RTCA). […] The full xCELLigence RTCA data are provided in the Supporting Information section (Figures S2 and S3). Thereafter, for each compound, the SI was calculated as a ratio of the CC50 of a compound against its EC50 [36].
Vero E6 cells were seeded on a 16-well E-plate (ACEA Biosciences, Inc., San Diego, CA, USA ) at a density of 5 × 10^3 cells/well and allowed to adhere overnight. On the next day, the studied compounds were added at the final concentrations ranging from 0.078 μM to 5 μM with a two-fold dilution step for compounds C1, C2, and C3, and at the final concentrations ranging from 1.56 μM to 50 μM with a two-fold dilution step for compounds C5 and C6; 0.01% DMSO was used as a solvent control. The cells were incubated for 5 days, and the signals between the electrodes (impedance) were recorded using an RTCA xCELLigence machine (Agilent Technologies, Inc., Santa Clara, CA, USA). […] The CC50 values were calculated using GraphPad Prism 10.0 for Windows, GraphPad Software, v. 10.4.1, Boston, MA, USA, www.graphpad.com (accessed on 16 February 2025).

Vero E6 cells [3] = assay: Resazurin cell viability assay, Vero E6; type: cell-based, African green monkey; details: Vero E6, 48 h of exposure
Experimental: as §1
Vero E6 cells were seeded on a 96-well plate at a density of 1 × 10^4 cells/well and were allowed to adhere overnight. On the next day, the medium was replaced with a fresh complete growth medium containing the desired compound at final concentrations ranging from 1 μM to 100 μM with a ten-fold dilution step; 0.05% DMSO was used as a solvent control. […] Thereafter, the fluorescence was measured by a Synergy H1 Hybrid Multi-Mode Microplate Reader (BioTek Instruments, Inc., Winooski, VT, USA) using a 540 nm excitation and 590 nm emission filter. […]

DENV2-Nanoluc = assay: microbe, parasite or virus in culture; type: cell-based; details: for EC50: Dengue virus, DENV2, Vero C1008, read-out: DENV2 EC50, μM
KUNV-Nanoluc = assay: organism not typed; type: cell-based; details: for EC50: Vero C1008, read-out: KUNV EC50, μM
ZIKV-Nanoluc = assay: microbe, parasite or virus in culture; type: cell-based; details: for EC50: Zika virus, Vero C1008, read-out: ZIKV EC50, μM
U2OS cells = assay: WST-1 cell viability assay, U2OS; type: cell-based, human; details: 48 h of exposure
Experimental: as §2

TBEV-Nanoluc replicon = type: cell-based
KUNV-Nanoluc replicon = type: cell-based
DENV2-Nanoluc replicon = type: cell-based
ZIKV-Nanoluc replicon = type: cell-based
WNV, DENV, and YFV = details: cited from earlier work
ZIKV = test system: ZIKV; set-up: method as in PMID 32452420; details: Vero E6 cells; read-out: EC50, inhibition of ZIKV replication; cited from earlier work

Row | Structure (SMILES) | antiviral effect against TBEV-Nanoluc (initial screening) (TBEV-Nanoluc) | cytotoxic effect (WST-1 assay) (Vero E6 cells [1]) | CC50 at 24 h [2] [µM] | cytotoxic effect (resazurin cell viability assay) (Vero E6 cells [3]) | antiviral effect against DENV2-Nanoluc (initial screening) (DENV2-Nanoluc) | EC50 (TBEV-Nanoluc) [µM] | antiviral effect against KUNV-Nanoluc (initial screening) (KUNV-Nanoluc) | EC50 (KUNV-Nanoluc) [µM] | EC50 (DENV2-Nanoluc) [µM] | antiviral effect against ZIKV-Nanoluc (initial screening) (ZIKV-Nanoluc) | EC50 (ZIKV-Nanoluc) [µM] | cytotoxic effect (WST-1 assay) (U2OS cells) | antiviral effect against TBEV-Nanoluc replicon (TBEV-Nanoluc replicon) | antiviral effect against KUNV-Nanoluc replicon (KUNV-Nanoluc replicon) | antiviral effect against DENV2-Nanoluc replicon (DENV2-Nanoluc replicon) | antiviral effect against ZIKV-Nanoluc replicon (ZIKV-Nanoluc replicon) | concentration at which the antiviral effect appeared (TBEV-Nanoluc) (TBEV-Nanoluc) [µM] | reduction of viral titers of WNV, DENV, and YFV (WNV, DENV, and YFV) | EC50 (ZIKV) [nM] | concentration at which a statistically significant antiviral effect appeared (ZIKV-Nanoluc) (ZIKV-Nanoluc) [µM]
1 | O=c1ccc2[n+]([O-])c3ccc([O-])cc3oc-2c1.[Na+] [Compound C8, sodium 3-oxo-3H-phenoxazin-10-ium-7,10-bis(olate)] | partially inhibit viral replication at the minimal tested concentration without an apparent dose-dependent effect | inverse dose-dependent effect | > 50 | no cytotoxic effect | negligible inhibition effect at the maximum tested concentration; also recorded: no antiviral effect against DENV2-Nanoluc in the tested concentrations range | – | – | – | – | – | – | – | – | – | – | – | – | – | – | –
2 | O=[N+]([O-])c1c(Nc2ccccc2O)cc(Cl)c2nonc12 [Compound C5, 2-[(7-chloro-4-nitro-2,1,3-benzoxadiazol-5-yl)amino]phenol] | clear dose-dependent antiviral effect | moderate cytotoxic effect at 50 μM | 12.8 | – | apparent dose-dependent antiviral effects | 9.88 | decreased the KUNV-Nanoluc activity only at the maximum tested concentrations | 8.9 | 2.91 | at the 50 μM concentration, the virus activity was completely inhibited | 10.4 | – | – | – | – | – | – | – | – | –
3 | Nc1ncnc2c1ncn2C1OC(CO)C(O)C1O (stereo not shown) [Compound C7, 2-(6-amino-9H-purin-9-yl)-5-(hydroxymethyl)oxolane-3,4-diol] | clear dose-dependent antiviral effect | no cytotoxic effect at the maximal tested concentration | > 50 | – | – | 8.33 | slight inhibition effect was observed for compound C7 at the 50 μM concentration | – | – | – | – | more toxic for the U2OS cells at the maximum tested concentration than in the Vero E6 cells | no inhibition of TBEV replication was observed; also recorded: inactive against all studied flavivirus replicons at the maximal non-toxic concentration | inactive against all studied flavivirus replicons at the maximal non-toxic concentration | slight inhibition effect against DENV2-Nanoluc if it was added at 1 h post-transfection; also recorded: inactive against all studied flavivirus replicons at the maximal non-toxic concentration | inactive against all studied flavivirus replicons at the maximal non-toxic concentration | – | – | – | –
4 | O[C@H]1[C@H]2c3cc4c(cc3CN3CCC(=C[C@@H]1O)[C@H]23)OCO4 [Compound C1, (1S,17S,18S,19S)-5,7-dioxa-12-azapentacyclo[10.6.1.0^2,^10.0^4,^8.0^15,^19]nonadeca-2(10),3,8,15-tetraene-17,18-diol] | the ten-fold increase in concentration did not lead to any significant improvement of the antiviral effect | – | 1.3 | – | apparent dose-dependent antiviral effects | 0.09 | apparent dose-dependent antiviral effect | 0.17 | 0.09 | completely inhibited the ZIKV-Nanoluc replication at the maximum tested concentration | 0.13 | – | later addition (at 8 h post-transfection) of C1 had a lower antiviral effect compared to earlier | later addition (at 8 h post-transfection) of C1 had a lower antiviral effect compared to earlier | later addition (at 8 h post-transfection) of C1 had a lower antiviral effect compared to earlier | later addition (at 8 h post-transfection) of C1 had a lower antiviral effect compared to earlier | 0.2 | 10^2- to 10^4 fold | 390 | 0.2
5 | Nc1nc(N)c2c(Oc3ccc(F)cc3)cccc2n1 [Compound C4, 5-(4-fluorophenoxy)quinazoline-2,4-diamine] | partially inhibit viral replication at the minimal tested concentration without an apparent dose-dependent effect | – | > 0.2 | – | negligible inhibition effect at the maximum tested concentration | – | – | – | – | some tendency to decrease the ZIKV-Nanoluc activity at a concentration of 2 μM | – | – | – | – | – | – | – | – | – | –
